The numbers were not newly measured in US20200338016A1, “COMBINATION BROAD-SPECTRUM ANTIBIOTIC PREPARATIONS FOR DRUG-RESISTANT PATHOGENS” (priority 2019, published 2020), which cites them from elsewhere.

The structures appear in SMILES notation.

In this series the test system is Mycobacterim tuberculosis. To be noted: ten strains of Mycobacterim tuberculosis, including six resistant to antibiotics.
`O=C(O)/C=C/c1ccc(O)c(O)c1` [caffeic acid]: the concentration that kills is given as 1024 micrograms per milliliter.

For the molecule `O=c1c(O)c(-c2ccc(O)c(O)c2)oc2cc(O)cc(O)c12` [quercetin], the concentration that kills is recorded as 1024 micrograms per milliliter.

Consider `O=C(O[C@@H]1Cc2c(O)cc(O)cc2O[C@@H]1c1cc(O)c(O)c(O)c1)c1cc(O)c(O)c(O)c1` [EGCG, epigallocatechin gallate], for which the concentration that kills is 1024 micrograms per milliliter.
